Where “and” joins values, the source holds several entries; their conditions need not be identical. Identical values can stand only once.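 Interpolation was linear, between the two tested concentrations surrounding the appropriate level; five concentrations were tested over 48 hours in 96-well plates. At the GI50, growth is halved. TGI is the concentration that stops growth completely.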

Among the test systems are OVCAR-8 ovarian; DU-145 prostate; M14 melanoma; SK-MEL-28 melanoma; COLO 205 colon; SR leukemia; OVCAR-4 ovarian; UACC-62 melanoma; MCF7 breast; SF-268 CNS.
What all share (experiment): DTP human tumour cell line panel, 48 h

With `CCOC(=O)C1=C(c2ccccc2)N(Cc2ccccc2)C2(O)C=CC(=O)C3C(=O)N(c4ccccc4)C(=O)C132` (configuration not stated), the GI50 (usually the concentration giving 50% growth inhibition) with OVCAR-8 ovarian was 3.09 µM; in the assay on DU-145 prostate it was 1.65 µM; in the assay with M14 melanoma, 1.92 µM; in the assay on SK-MEL-28 melanoma, 1.73 µM; in the assay with COLO 205 colon it was 1.74 µM; with SR leukemia, 1.17 µM. In addition, the GI50 in the assay with OVCAR-4 ovarian is 2.94 µM; in the assay with UACC-62 melanoma it was 1.63 µM; with MCF7 breast, 1.29 µM; in the assay on SF-268 CNS, 2.56 µM. Further, the total growth inhibition concentration (TGI) (usually the concentration at which net growth stops) stood at 17.5 µM in the assay on OVCAR-8 ovarian; 3.92 µM with DU-145 prostate; 4.04 µM with M14 melanoma; 3.85 µM with SK-MEL-28 melanoma; 3.45 µM in the assay on COLO 205 colon; 4.13 µM in the assay on SR leukemia. The TGI was found to be 10.8 µM in the assay on OVCAR-4 ovarian, 3.16 µM in the assay on UACC-62 melanoma, 3.08 µM with MCF7 breast and 8.08 µM in the assay with SF-268 CNS.

On to `COc1cc(OC)c(/C=C/S(=O)(=O)Cc2ccc(OC)c(NCC(=O)O)c2)c(OC)c1`, for which the GI50 in the assay with OVCAR-8 ovarian was 0.273 µM and 0.104 µM; in the assay on DU-145 prostate it was 0.29 µM and 0.176 µM; with M14 melanoma, 0.0965 µM and 0.0467 µM; with SK-MEL-28 melanoma, 0.34 µM; in the assay with COLO 205 colon, 0.238 µM and 0.274 µM; in the assay with SR leukemia it was 0.181 µM and 0.206 µM. For the same compound, the GI50 is > 2.91 µM and 0.417 µM in the assay with OVCAR-4 ovarian; 0.109 µM and 0.0586 µM with MCF7 breast; 0.292 µM and 0.153 µM in the assay with SF-268 CNS. For the same compound, the TGI was over 100 µM with OVCAR-8 ovarian; over 10 µM in the assay on M14 melanoma; over 10 µM with SK-MEL-28 melanoma; 0.714 µM and 0.738 µM in the assay on COLO 205 colon; over 100 µM in the assay on SR leukemia; over 100 µM with OVCAR-4 ovarian. Also, the concentration for total growth inhibition (TGI) with UACC-62 melanoma, in the assay with MCF7 breast and in the assay with SF-268 CNS was over 100 µM throughout.

With `C[C@H](NC(=O)CCC(F)(F)F)C(=O)N[C@@H]1C(=O)N(CCO)c2ncccc2-c2ccccc21`, the GI50 with OVCAR-8 ovarian, with DU-145 prostate, in the assay with M14 melanoma, with SK-MEL-28 melanoma, with COLO 205 colon and with SR leukemia was over 100 µM throughout. Moreover, the GI50 in the assay with OVCAR-4 ovarian, with UACC-62 melanoma, in the assay on MCF7 breast and in the assay on SF-268 CNS was over 100 µM throughout. Also, the TGI with OVCAR-8 ovarian, with DU-145 prostate, in the assay on M14 melanoma, with SK-MEL-28 melanoma, with COLO 205 colon and in the assay on SR leukemia was over 100 µM each time. For the same compound, the TGI with OVCAR-4 ovarian, in the assay on UACC-62 melanoma, with MCF7 breast and in the assay on SF-268 CNS was over 100 µM throughout.

With `CC(C)C[C@H](NC(=O)[C@@H](O)[C@H](N)Cc1ccccc1)C(=O)O`, the TGI in the assay on OVCAR-8 ovarian, in the assay with DU-145 prostate, with M14 melanoma, in the assay on SK-MEL-28 melanoma, in the assay on COLO 205 colon and in the assay on SR leukemia was over 100 µM throughout. For the same compound, the TGI with OVCAR-4 ovarian, in the assay with UACC-62 melanoma, with MCF7 breast and in the assay on SF-268 CNS was over 100 µM in each case.

With `Nc1ccc2c(c1)CN1C(=O)c3ccccc3C1=N2`, the TGI is 115 µM with OVCAR-8 ovarian; over 125 µM in the assay on DU-145 prostate; over 125 µM in the assay on M14 melanoma; over 125 µM with SK-MEL-28 melanoma; over 125 µM in the assay on COLO 205 colon; over 125 µM in the assay with SR leukemia. Also, the concentration for total growth inhibition (TGI) with OVCAR-4 ovarian was over 125 µM; with UACC-62 melanoma, over 116 µM; in the assay with MCF7 breast, over 78.9 µM; in the assay with SF-268 CNS it was 108 µM. Further, the GI50 with COLO 205 colon was 33.9 µM; in the assay with SR leukemia it was 26.4 µM; with UACC-62 melanoma, 52.9 µM; in the assay on SF-268 CNS it was 58.6 µM.

With `CCN(CC)CCOc1ccc(C2=C(c3ccccc3)CCc3cc(OC)ccc32)cc1`, the GI50 in the assay with OVCAR-8 ovarian was 3.15 µM; in the assay with DU-145 prostate, 6.69 µM; in the assay with M14 melanoma it was 1.88 µM; with SK-MEL-28 melanoma it was 1.62 µM; in the assay on COLO 205 colon it was 1.53 µM; in the assay on SR leukemia it was 0.518 µM. For the same compound, the GI50 was 3.54 µM in the assay with OVCAR-4 ovarian, 1.87 µM in the assay on UACC-62 melanoma, 0.547 µM in the assay with MCF7 breast and 5.97 µM with SF-268 CNS. For the same compound, the TGI with OVCAR-8 ovarian stood at 10.5 µM; with DU-145 prostate, 17.5 µM; in the assay with M14 melanoma, 3.82 µM; in the assay on SK-MEL-28 melanoma, 3.19 µM; in the assay on COLO 205 colon, 3.04 µM; with OVCAR-4 ovarian, 17.2 µM. In addition, the TGI in the assay with UACC-62 melanoma came out at 3.9 µM; in the assay with MCF7 breast, 2.62 µM; in the assay with SF-268 CNS, 18 µM.

For `O=C(Cc1nc2ccc([N+](=O)[O-])cc2[nH]c1=O)C(=O)Nc1cc(Cl)c(Cl)cc1Cl`, the total growth inhibition concentration (TGI) in the assay on OVCAR-8 ovarian, with DU-145 prostate, in the assay on M14 melanoma, in the assay on SK-MEL-28 melanoma, in the assay on COLO 205 colon and in the assay on SR leukemia was over 100 µM in each case. Also, the TGI with OVCAR-4 ovarian, with UACC-62 melanoma, with MCF7 breast and with SF-268 CNS was over 100 µM each time.

On to `CC(C)(C)c1ccc(S(=O)(=O)N[C@H]2CC[C@H]3[C@@H]4CCc5cc(O)ccc5[C@H]4CC[C@]23C)cc1`, for which the GI50 in the assay with OVCAR-8 ovarian was 2.02 µM; in the assay with DU-145 prostate it was 3.93 µM; in the assay on M14 melanoma it was 2.02 µM; in the assay with SK-MEL-28 melanoma it was 1.71 µM; with COLO 205 colon, 1.85 µM; with SR leukemia, 2.17 µM. The GI50 with OVCAR-4 ovarian was 2.91 µM; with UACC-62 melanoma it was 2.16 µM; in the assay on MCF7 breast, 1.74 µM; with SF-268 CNS, 3.94 µM. In addition, the TGI with OVCAR-8 ovarian came out at 4.59 µM; with DU-145 prostate, 12.9 µM; in the assay with M14 melanoma, 4.04 µM; in the assay with SK-MEL-28 melanoma it was 3.18 µM; with COLO 205 colon, 3.3 µM; in the assay on SR leukemia, 6.04 µM. In addition, the TGI stood at 10.2 µM with OVCAR-4 ovarian, 5.91 µM in the assay on UACC-62 melanoma, 3.57 µM in the assay with MCF7 breast and 14 µM with SF-268 CNS.

With `Cc1ccc(OCCCCCCNCCO)c(C)c1`, the GI50 is 17.8 µM with OVCAR-8 ovarian; 16.7 µM with DU-145 prostate; 16.3 µM in the assay on M14 melanoma; 15.4 µM in the assay with SK-MEL-28 melanoma; 10 µM with COLO 205 colon; 14.1 µM with SR leukemia. Moreover, the GI50 in the assay on OVCAR-4 ovarian was 13.6 µM; in the assay with UACC-62 melanoma it was 12.1 µM; in the assay on MCF7 breast, 13.9 µM; with SF-268 CNS, 16 µM. Besides, the TGI came to 35.9 µM in the assay on OVCAR-8 ovarian; 30.6 µM in the assay on DU-145 prostate; 35.3 µM with M14 melanoma; 29.9 µM in the assay on SK-MEL-28 melanoma; 26.3 µM in the assay on COLO 205 colon; 35.5 µM in the assay with SR leukemia. In addition, the TGI is 28.8 µM in the assay with OVCAR-4 ovarian, 25.7 µM in the assay on UACC-62 melanoma, 28.7 µM in the assay with MCF7 breast and 31.1 µM in the assay on SF-268 CNS.

Regarding `COc1cc(C2c3cc4c(cc3[C@@H](Nc3cccc(O)c3)C3COC(=O)[C@H]23)OCO4)cc(OC)c1O` (some centres not stated), the GI50 in the assay with OVCAR-8 ovarian is 0.769 µM; with M14 melanoma it was 0.991 µM; in the assay on SK-MEL-28 melanoma, 0.746 µM; in the assay with SR leukemia it was 0.0674 µM; with UACC-62 melanoma, 0.603 µM; in the assay with SF-268 CNS, 0.942 µM. Besides, the TGI was 11.4 µM in the assay with OVCAR-8 ovarian; 1.75 µM in the assay with DU-145 prostate; 14.1 µM in the assay with M14 melanoma; 20.7 µM in the assay with SK-MEL-28 melanoma; 23.1 µM with COLO 205 colon; 0.816 µM and 4.6 µM with SR leukemia. Besides, the TGI in the assay with OVCAR-4 ovarian was found to be 37.6 µM; in the assay on UACC-62 melanoma, 7.08 µM; in the assay with MCF7 breast it was 28.4 µM; with SF-268 CNS, 14.1 µM.

`CCC1(N2C(=O)c3c(F)c(F)c(F)c(F)c3C2=O)C(=O)NC(=O)N(c2ccccc2)C1=O` (configuration not stated): the GI50 in the assay on OVCAR-8 ovarian is 3.47 µM; with DU-145 prostate it was 4.87 µM; in the assay on M14 melanoma, 4.46 µM; in the assay with SK-MEL-28 melanoma, 2.79 µM; in the assay with COLO 205 colon it was 2.57 µM; in the assay with SR leukemia, 0.496 µM. Further, the GI50 in the assay with OVCAR-4 ovarian is 1.74 µM; in the assay with UACC-62 melanoma it was 1.41 µM; in the assay on MCF7 breast, 2.21 µM; with SF-268 CNS, 3.66 µM. The TGI was 11.4 µM in the assay with OVCAR-8 ovarian; 17.9 µM with DU-145 prostate; 19.4 µM with M14 melanoma; 10.6 µM with SK-MEL-28 melanoma; 6.78 µM with COLO 205 colon; 4.32 µM with SR leukemia. In addition, the TGI in the assay on OVCAR-4 ovarian is 4.08 µM; with UACC-62 melanoma, 3.1 µM; in the assay on MCF7 breast, 17 µM; with SF-268 CNS, 16 µM.

Consider `O=C(NO)C(O)C(O)C(O)C(O)CO` (configuration not stated), for which the GI50 with OVCAR-8 ovarian was over 100 µM; with DU-145 prostate, 40 µM and > 100 µM; with M14 melanoma, over 100 µM; in the assay with SK-MEL-28 melanoma it was over 100 µM; in the assay with COLO 205 colon, > 100 µM and 51.5 µM; in the assay on SR leukemia, 75.9 µM. Besides, the GI50 with OVCAR-4 ovarian is over 100 µM; with UACC-62 melanoma, 84.2 µM and 38.6 µM; in the assay with MCF7 breast, > 100 µM and 46.4 µM; in the assay with SF-268 CNS, over 100 µM. The TGI in the assay with OVCAR-8 ovarian, in the assay on DU-145 prostate, with M14 melanoma, in the assay with SK-MEL-28 melanoma, with COLO 205 colon and in the assay with SR leukemia was over 100 µM throughout. Moreover, the TGI with OVCAR-4 ovarian, in the assay on UACC-62 melanoma, with MCF7 breast and with SF-268 CNS was over 100 µM each time.

The record behind these values is PubChem BioAssay (NCI).
